Patent US9944596B2, “Heterocyclic compound” (TAKEDA PHARMACEUTICAL COMPANY LIMITED, priority 2014, dated 2018)

Legend:
human RBP4 = molecular target: T1, human RBP4 (Homo sapiens, UniProt P02753); experiment: Binding assay by Retinol-RBP4-TTR ELISA; conditions: compound 10 μM; retinol 50 nM; His-tagged human RBP4, biotinylated human TTR; read-out: human RBP4 binding inhibitory activity (% at 10 μM)
T1 construct: the culture supernatant containing secreted hRBP4-His was recovered; made in house; host or cells: FreeStyle 293 expression system (Invitrogen)
Experimental: Using the Retinol-RBP4-TTR ELISA system shown below, the action of the compound of the present invention to inhibit the binding of RBP4 and retinol and TTR was evaluated.
1F: Binding Assay by Retinol-RBP4-TTR ELISA
This ELISA system detects a complex with RBP4 and TTR based on the retinol dependent binding of RBP4 to TTR.
The His-tagged human RBP4 used was prepared in the above-mentioned 1C.
The biotinylated human TTR used was prepared in the above-mentioned 1E.
Streptavidin (20 μl) (10 μg/ml Streptavidin type II (Wako Pure Chemical Industries, Ltd.), 10 mM Tris-HCl (pH 7.5), 10 mM NaCl) was added to a 384 well blackplate (Nunc MaxiSorp, Thermo Fisher Scientific Inc.), and the plate was centrifuged (1000 rpm, 1 min) and coated at 4° C. overnight. The plate was washed twice with PBST (PBS, 0.05% Tween 20, 100 μl/well), and blocked with 25% Block Ace (Snow Brand Milk Products Co., Ltd., PBS, 100 μl/well). The plate was subjected to centrifugation (1000 rpm, 1 min), and incubated at room temperature for 4 hr or 4° C. overnight. The plate was washed twice with PBST (PBS, 0.05% Tween 20, 100 μl/well), and biotinylated human TTR (stock solution concentration 1.0 mg/ml) diluted 750-fold with PBST was added at 20 μl/well. The plate was subjected to centrifugation (1000 rpm, 1 min), and further stood at room temperature for 1.5 hr or 4° C. overnight. The plate was washed 3 times with PBST (100 μl/well), and His-tagged human RBP4 (stock solution concentration 1.28 mg/ml) diluted 4000-fold with a reaction buffer (50 mM Tris-HCl, 150 mM NaCl, 0.005% Tween 20, 1 mM DTT, 0.1% BSA) was added at 10 μl/well. The dilution of the compound (200-fold concentration) was prepared with DMSO, and 1.6 μl each was added to a reaction buffer (320 μl) containing retinol (50 nM) (Sigma-Aldrich Co.). A reaction buffer (320 μl) containing retinol and added with DMSO was used as a positive control, and a reaction buffer (320 μl) not containing retinol and added with DMSO was used as a negative control. A mixed solution of retinol and the compound was added to the plate at 15 μl/well. The plate was stirred in a plate mixer, centrifuged (1000 rpm, 1 min), and reacted at room temperature for 2 hr. Anti-His HRP-conjugated antibody (QIAGEN) solution diluted with a reaction buffer was added […], centrifuged (1000 rpm, 1 min), and reacted at room temperature for 30 min. The plate was washed 3 times with PBST (100 μl/well), SuperSignal ELISA Femto Maximum Sensitivity Substrate reagent (PIERCE, Thermo Fisher Scientific Inc.) was added at 30 μl/well, and the luminescence was measured by a plate reader (Envision).
The binding inhibitory activity of the compound was determined by 100×(positive control value−test compound value)/(positive control value−negative control value).

RBP4 = molecular target: T2, RBP4 (Mus musculus, UniProt Q00724); experiment: Blood RBP4-lowering action in C57BL/6J mouse (plasma RBP4 by ELISA); assay type: in vivo; conditions: male C57BL/6J mice, mean±SD, n=4 or 5; for RBP4 (initial value/control value %) 8 hr later: plasma 8 hr after administration
T2 construct: from tissue; host or cells: plasma of male C57BL/6J mice (Japan Charles River)
Experimental: The blood RBP4-lowering action of the compound of the present invention was evaluated using C57BL/6J mouse.
Male 7- to 10-week-old C57BL/6J mice (Japan Charles River) were acclimation reared under free food ingestion conditions on CE-2 solid feed (CLEA Japan, Inc.) for 4 to 6 days, and randomly grouped (4 or 5 per group). On the day of the test, blood samples were collected from the tail vein, and plasma was separated (0 hr value). Thereafter, a test compound (Example 1, 4, 5, 6 or 7) was orally administered at a dose of 5 mg/kg (solvent: 0.5% methylcellulose solution (10 mL/kg)). At 8 hr after the compound was administered, blood samples were collected from the tail vein and plasma was separated. Immediately after the blood samples were collected, the test compound was orally administered again at a dose of 5 mg/kg, and blood samples were collected again at 24 hr after the initial administration. In Examples 2, 3 and 8, the initial administration alone was performed at a dose of 10 mg/kg. The daily dose of all the test compounds was set to 10 mg/kg. A 0.5% methylcellulose solution (10 mL/kg) was orally administered to the control group.
The amount of RBP4 in the collected plasma was measured by the ELISA method. Using rabbit anti-mouse RBP4 polyclonal antibody (Hokudo Co., Ltd.), RBP4 was quantified by the following process. A 96 well ELISA plate was coated with 50 μg/mL antibody (100 μL), and stood at 4° C. overnight or at room temperature for 2 hr. After blocking with BlockAce (Dainippon Pharmaceutical Co., Ltd.), 100 μL of mouse RBP4 or sample was added and the plate was stood at room temperature for 2 hr, washed with PBS-0.5% Tween20, added with HRP-labeled anti-RBP4 antibody (prepared by labeling RBP4 polyclonal antibody (Hokudo Co., Ltd.) with HRP (DOJINDO LABORATORIES)) (100 μL), and stood at room temperature for 1 hr. After washing, TMB (Sigma) was added at room temperature for 20 min to allow for color development. The reaction was quenched with 2N sulfuric acid and the absorbance at A450 nm was measured by a platereader. Variation from the initial value of each individual was taken as the relative value to the control group (initial value/control value, %) at each time point. The results are shown below in mean±standard deviation (n=4 or 5).

A2E = experiment: Suppression of A2E accumulation in the eyeball of ABCA4 KO mouse (HPLC); assay type: in vivo; conditions: male ABCA4 KO mice, oral 5 mg/kg twice per day for 12 weeks, n=6
Experimental: The suppressive action for accumulation of retinoid metabolite bis-retinoid N-retinylidene-N-retinylethanolamine (A2E) in the eyeball, of the compound of the present invention, was evaluated using ATP-binding cassette A4 knockout (ABCA4 KO) mouse. A2E is the major constituent component of Lipofuscin in the eyeball, and is involved in the onset and pathology progression in atrophic age-related macular degeneration and Stargardt's disease. ABCA4 KO mouse was confirmed to show remarkable accumulation of A2E, Lipofuscin along with aging, and is known as an animal model of atrophic age-related macular degeneration and Stargardt's disease.
8-Week-old male ABCA4 KO mice were randomly grouped, and 0.5% methylcellulose solution was orally administered to the control group, and 0.5% methylcellulose suspension of a compound at a dose shown in the following Table was orally administered to the test compound group, each twice per day at 10 mL/kg. Each group contained 6 mice. After repetitive administration for 12 weeks, eyeball was isolated under anesthesia.
In the eyeball, A2E was measured by the HPLC method. A2E reference standard was synthesized from all-trans retinal, ethanolamine in acetic acid-added ethanol. […] Quantification was performed at ultraviolet absorbance at 440 nm by PDA.

[1] = oral 5 mg/kg at 0 hr and again at 8 hr (daily dose 10 mg/kg), plasma 24 hr after initial administration
[2] = oral 10 mg/kg initial administration alone
[3] = oral 10 mg/kg initial administration alone, plasma 24 hr after administration

| SMILES | inhibition at 10 µM (human RBP4) [%] | RBP4 (initial value/control value %) 24 hr later (RBP4; [1]) [%] | RBP4 (initial value/control value %) 8 hr later (RBP4; oral 5 mg/kg) [%] | RBP4 (initial value/control value %) 8 hr later (RBP4; [2]) [%] | RBP4 (initial value/control value %) 24 hr later (RBP4; [3]) [%] | A2E (% of control value) (A2E) [%] |
| --- | --- | --- | --- | --- | --- | --- |
| O=C(O)CC(=O)N1CC[C@H](COc2ccccc2C2(C(F)(F)F)CC2)C1 [Example 1, 3-oxo-3-((3S)-3-((2-(1-(trifluoromethyl)cyclopropyl)phenoxy)methyl)pyrrolidin-1-yl)propanoic acid] | 100 | 28.49 ± 5.16 | 30.02 ± 6.85 | – | – | – |
| CC1(c2ccccc2OC[C@H]2CCN(C(=O)CC(=O)O)C2)CC1 [Example 2, 3-((3S)-3-((2-(1-methylcyclopropyl)phenoxy)methyl)pyrrolidin-1-yl)-3-oxopropanoic acid] | 98 | – | – | 11.82 ± 3.24 | 36.40 ± 12.19 | – |
| O=C(O)CC(=O)N1CC[C@H](COc2ccccc2C2CCC2)C1 [Example 3, 3-((3S)-3-((2-cyclobutylphenoxy)methyl)pyrrolidin-1-yl)-3-oxopropanoic acid] | 98 | – | – | 37.20 ± 3.71 | 95.57 ± 8.55 | – |
| CCOC(=O)CC(=O)N1CC[C@H](COc2ccccc2C2(C(F)(F)F)CC2)C1 [Example 8, ethyl 3-oxo-3-((3S)-3-((2-(1-(trifluoromethyl)cyclopropyl)phenoxy)methyl)pyrrolidin-1-yl)propanoate] | – | – | – | 77.35 ± 7.08 | 92.76 ± 6.81 | – |

More lines, main results first:

| inhibition at 10 µM (human RBP4) [%] | RBP4 (initial value/control value %) 24 hr later (RBP4; [1]) [%] | RBP4 (initial value/control value %) 8 hr later (RBP4; oral 5 mg/kg) [%] | RBP4 (initial value/control value %) 8 hr later (RBP4; [2]) [%] | RBP4 (initial value/control value %) 24 hr later (RBP4; [3]) [%] | SMILES | A2E (% of control value) (A2E) [%] |
| --- | --- | --- | --- | --- | --- | --- |
| 100 | 56.02 ± 9.72 | 29.93 ± 6.80 | – | – | O=C(O)CC(=O)N1CC[C@H](COc2ccccc2C2CCCC2)C1 [Example 4, 3-((3S)-3-((2-cyclopentylphenoxy)methyl)pyrrolidin-1-yl)-3-oxopropanoic acid] | 53.94 ± 15.16 |
| 100 | 62.83 ± 4.70 | 32.30 ± 1.76 | – | – | O=C(O)CC(=O)N1CC[C@H](COc2ccccc2C2CCCCC2)C1 [Example 5, 3-((3S)-3-((2-cyclohexylphenoxy)methyl)pyrrolidin-1-yl)-3-oxopropanoic acid] | – |
| 100 | 41.90 ± 20.25 | 41.42 ± 13.96 | – | – | O=C(O)CC(=O)N1CC[C@@H](COc2ccccc2C2CCCC2)C1 [Example 6, 3-((3R)-3-((2-cyclopentylphenoxy)methyl)pyrrolidin-1-yl)-3-oxopropanoic acid] | – |
| 100 | 53.72 ± 6.97 | 33.90 ± 6.60 | – | – | O=C(O)CC(=O)N1CCC(COc2ccccc2C2CCCC2)C1 (stereo not drawn) [Example 7, 3-(3-((2-cyclopentylphenoxy)methyl)pyrrolidin-1-yl)-3-oxopropanoic acid] | – |
